The experiment has as its system CSM14.1 cells, thapsigargin-induced ATF-4 Western blot. In words: blockers of ATF-4 protein induction, late-stage follow-up, mechanism study for ER stress cell death inhibitors, CSM14.1 cells, thapsigargin, Western blot (AID 1389). Background: In western blotting, separated proteins are transferred to a membrane and probed.

The record followed here is PubChem BioAssay AID1389 (Sanford-Burnham Center for Chemical Genomics, 2008).

Active and inactive are the calls of the source.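 How the source made its calls: active means no visible ATF-4 stress protein band on the western blot after compound pretreatment and chemical ER stress; inactive means the rest.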

For `COc1ccc(C2CC(=O)C3=C(C2)Nc2ccccc2NC3c2cc(C)ccc2C)cc1` (stereo unspecified), the outcome was active.
As to `COc1ccc(C2CC(=O)C3=C(C2)Nc2ccccc2NC3c2cccc(C(F)(F)F)c2)cc1OC` (stereo unspecified), the outcome was inactive.
On to `COc1ccc(C2CC(=O)C3=C(C2)Nc2ccccc2NC3c2cccc(Oc3ccccc3)c2)cc1OC` (stereo unspecified), for which the outcome was inactive.
For the compound `CCCOc1ccc(C2Nc3ccccc3NC3=C2C(=O)CC(c2ccc(OC)c(OC)c2)C3)cc1` (stereo unspecified), the result was active.
With `COc1ccc(C2CC(=O)C3=C(C2)Nc2ccccc2NC3c2ccccc2C(F)(F)F)cc1OC` (stereo unspecified), the outcome was inactive.
Regarding `O=C1CC(c2ccccc2)CC2=C1C(c1c(F)cccc1Cl)Nc1ccccc1N2` (stereo unspecified), the outcome was inactive.
For `CCOc1cc(C2Nc3ccccc3NC3=C2C(=O)CC(c2ccc(OC)cc2)C3)cc(Cl)c1O` (stereo unspecified) the value was “inactive”; for `CSc1ccc(C2Nc3ccccc3NC3=C2C(=O)CC(c2ccccc2)C3)cc1` (stereo unspecified), “inactive”.
On to `COc1ccc(C2CC(=O)C3=C(C2)Nc2ccccc2NC3c2cccc(Br)c2)cc1OC` (stereo unspecified), for which the outcome was inactive.
The value for `CCOc1cccc(C2Nc3ccccc3NC3=C2C(=O)CC(c2ccc(OC)cc2)C3)c1` (stereo unspecified) was “inactive”.
For `CC1(C)CC(=O)C2=C(C1)Nc1ccccc1NC2c1ccc(-c2ccccc2)cc1` (stereo unspecified), the outcome was inactive.
